In ChEMBL document CHEMBL5385865, “Discovery and optimization of 2-(trifluoromethyl)benzimidazole derivatives as novel ferroptosis inducers in vitro and in vivo” (Eur J Med Chem, 2023):
Active and inactive are the calls of the source. The rule behind the calls is not given here.

Tests used:
[1] = Toxicity in BALB/c nude mouse xenografted with human HepG2 cells assessed as body weight loss at 15 to 30 mg/kg, ip administered every other day for 21 days; assay type: organism-based; conditions: in vivo, 504 h, dose 15-30 mg/kg, time 21 day
[2] = system: MDA-MB-231; test: Lethality in human MDA-MB-231 cells assessed as decrease in cell viability at 10 uM incubated for 48 hrs in presence of Fer-1 by MTT assay; assay type: functional, cell-based
[3] = Toxicity in BALB/c nude mouse xenografted with human HepG2 cells assessed as histological change in kidney at 15 to 30 mg/kg, ip administered every other day for 21 days by H and E staining based analysis; assay type: organism-based; conditions: in vivo, 504 h, dose 15-30 mg/kg, time 21 day
[4] = target: T1, Phospholipid hydroperoxide glutathione peroxidase GPX4 (Homo sapiens) (UniProt P36969); test: Inhibition of GPX4 in human HT-1080 cells at 10 to 40 uM incubated for 12 hrs; assay type: cell-based; conditions: dose 10-40 µM
T1 sequence (whole entry): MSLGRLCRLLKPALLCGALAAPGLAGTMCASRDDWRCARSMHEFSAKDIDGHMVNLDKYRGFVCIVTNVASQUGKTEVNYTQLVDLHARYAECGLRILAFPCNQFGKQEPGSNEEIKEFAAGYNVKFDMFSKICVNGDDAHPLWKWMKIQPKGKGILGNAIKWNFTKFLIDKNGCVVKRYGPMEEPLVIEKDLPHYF

[5] = system: DU-145; test: Lethality in human DU-145 cells assessed as decrease in cell viability at 10 uM incubated for 48 hrs in presence of DFO by MTT assay; assay type: functional, cell-based
[6] = system: HepG2; test: Antitumor activity against human HepG2 cells xenografted in BALB/c nude mouse assessed as tumor growth inhibition at 30 mg/kg, ip administered every other day for 21 days by electronic caliper analysis relative to control; assay type: functional; conditions: HepG2, 504 h, time 21 day, read-out: TGI
[7] = system: HeLa; test: Lethality in human HeLa cells assessed as inhibition of cell viability incubated for 24 hrs by MTT assay; assay type: functional, cell-based
[8] = system: HT-1080; test: Induction of ferroptosis in human HT-1080 cells assessed as cell death at 5 uM incubated for 6 hrs in presence of ferric ammonium citrate by fluorescent microscopy; assay type: functional, cell-based
[9] = system: MDA-MB-231; test: Lethality in human MDA-MB-231 cells assessed as inhibition of cell viability incubated for 24 hrs by MTT assay; assay type: functional, cell-based; conditions: MDA-MB-231, 24 h
[10] = system: HT-1080; test: Induction of ferroptosis in human HT-1080 cells assessed as cell death at 5 uM incubated for 24 hrs in presence of DFO by morphology based microscopy; assay type: functional
[11] = system: HepG2; test: Lethality in human HepG2 cells assessed as decrease in cell viability at 10 uM incubated for 48 hrs in presence of DFO by MTT assay; assay type: functional, cell-based
[12] = Metabolic stability in human liver microsomes assessed as half life at 1 uM in presence of NADPH by LC-MS analysis; assay type: ADME, Microsome
[13] = system: HT-1080; test: Induction of ferroptosis in human HT-1080 cells assessed as increase in mitochondrial membrane density at 5 uM incubated for 24 hrs by TEM analysis; assay type: functional, cell-based
[14] = system: A-375; test: Lethality in human A-375 cells assessed as decrease in cell viability at 10 uM incubated for 48 hrs in presence of DFO by MTT assay; assay type: functional, cell-based
[15] = system: HT-1080; test: Induction of ferroptosis in human HT-1080 cells assessed as increase in cytosolic ROS accumulation at 5 uM incubated for 10 hrs in presence of Fer-1 by H2DCFDA probe based flow cytometry; assay type: functional, cell-based
[16] = Toxicity in human HEK293T cells upto 20 uM incubated for 48 hrs by MTT assay; assay type: cell-based; conditions: hek-293t
[17] = system: HT-1080; test: Induction of ferroptosis in human HT-1080 cells assessed as cell death at 5 uM incubated for 6 hrs in presence of ferric citrate by fluorescent microscopy; assay type: functional, cell-based
[18] = system: HepG2; test: Antitumor activity against human HepG2 cells xenografted in BALB/c nude mouse assessed as tumor growth inhibition at 15 mg/kg, ip administered every other day for 21 days by electronic caliper analysis relative to control; assay type: functional; conditions: HepG2, 504 h, time 21 day, read-out: TGI
[19] = Toxicity in BALB/c nude mouse xenografted with human HepG2 cells assessed as effect on serum CK level at 15 to 30 mg/kg, ip administered every other day for 21 days; assay type: organism-based; conditions: in vivo, 504 h, dose 15-30 mg/kg, time 21 day
[20] = system: DU-145; test: Lethality in human DU-145 cells assessed as decrease in cell viability at 10 uM incubated for 48 hrs by MTT assay; assay type: functional, cell-based
[21] = system: HT-1080; test: Effect on GPX4 mRNA level in human HT-1080 cells at 0.5 to 5 uM incubated for 18 hrs by qPCR analysis; assay type: functional, cell-based; conditions: dose 0.5-5 µM
[22] = system: HT-1080; test: Induction of ferroptosis in human HT-1080 cells assessed as cell death incubated for 24 hrs by morphology based microscopy; assay type: functional; conditions: dose 0.5-5 µM
[23] = system: 786-0; test: Lethality in human 786-0 cells assessed as decrease in cell viability at 10 uM incubated for 48 hrs in presence of DFO by MTT assay; assay type: functional, cell-based
[24] = system: HepG2; test: Induction of ferroptosis in human HepG2 cells xenografted in BALB/c nude mouse assessed as increase in 4-HNE level administered intraperitoneally every other day for 21 days; assay type: functional; conditions: dose 15-30 mg/kg, route ip, time 21.0 day
[25] = system: HT-1080; test: Induction of ferroptosis in human HT-1080 cells assessed as cell death at 5 uM incubated for 24 hrs in presence of beta-mercaptoethanol by MTT assay; assay type: functional, cell-based
[26] = system: HT-1080; test: Induction of ferroptosis in human HT-1080 cells assessed as cell death at 10 uM incubated for 24 hrs in presence of Nec-1 by MTT assay; assay type: functional, cell-based
[27] = system: HT-1080; test: Induction of ferroptosis in human HT-1080 cells assessed as increase in lipid ROS accumulation at 5 uM incubated for 10 hrs by BODIPY-C11 probe based confocal laser scanning microscopy; assay type: functional, cell-based
[28] = system: HT-1080; test: Induction of ferroptosis in human HT-1080 cells overexpressing SLC7A11 assessed as increase in lipid peroxidation by BODIPY-C11 probe based confocal laser scanning microscopy; assay type: functional, cell-based
[29] = system: HT-1080; test: Induction of ferroptosis in human HT-1080 cells assessed as decrease in GSH level incubated for 12 hrs by DTNB method; assay type: functional, cell-based; conditions: dose 0.5-5 µM
[30] = Metabolic stability in rat liver microsomes assessed as intrinsic clearance measured per mg protein at 1 uM in presence of NADPH by LC-MS analysis; assay type: ADME, Microsome; conditions: read-out: CLH
[31] = system: HT-1080; test: Induction of ferroptosis in human HT-1080 cells assessed as cell death at 10 uM incubated for 24 hrs in presence of Fer-1 by MTT assay; assay type: functional, cell-based
[32] = system: HT-1080; test: Induction of ferroptosis in human HT-1080 cells assessed as shrinkage of mitochondria at 5 uM incubated for 24 hrs by TEM analysis; assay type: functional, cell-based
[33] = system: DU-145; test: Lethality in human DU-145 cells assessed as inhibition of cell viability incubated for 24 hrs by MTT assay; assay type: functional, cell-based; conditions: DU-145, 24 h
[34] = system: HT-1080; test: Induction of ferroptosis in human HT-1080 cells assessed as increase in lipid ROS accumulation at 0.5 to 5 uM incubated for 10 hrs by flow cytometry; assay type: functional, cell-based; conditions: dose 0.5-5 µM
[35] = Metabolic stability in […] rat microsomes assessed as half life at 1 uM in presence of NADPH by LC-MS analysis; assay type: ADME, Liver, Microsome

inhibition [4]: inactive | half-life at 1 µM [12]: 15.6 min | microsomal CLint at 1 µM [30]: 133 µL/min/mg | half-life at 1 µM [35]: 10.4 min
SMILES: CN(C)S(=O)(=O)c1ccc(N2CCC(Cn3c(C(F)(F)F)nc4ccccc43)CC2)cc1
Activity [1]: Non-Toxic | Activity [2]: inactive | Activity [3]: Non-Toxic | Activity [5]: inactive | inhibition in vivo at 30 mg/kg [6]: 77.1% | IC50 [7]: 1910 nM | Activity [8]: Active | IC50 [9]: 4340 nM | Activity [10]: inactive | Activity [11]: inactive | Activity [13]: Active | Activity [14]: inactive | Activity [15]: inactive | Activity [16]: Toxic | Activity [17]: Active | inhibition in vivo at 15 mg/kg [18]: 47.6% | Activity [19]: Non-Toxic | Activity [20]: Active | Activity [21]: inactive | Activity [22]: Dose-Dependent Effect | Activity [23]: inactive | Activity [24]: Dose-Dependent Effect | Activity [25]: inactive | Activity [26]: Active | Activity [27]: Active | Activity [28]: inactive | Activity [29]: Dose-Dependent Effect | Activity [31]: inactive | Activity [32]: Active | IC50 [33]: 1640 nM | Activity [34]: Active
